Source: patent US12465614B2, “Budesonide 21-phosphate salts and pharmaceutical compositions containing the same” (GENETIC S.P.A., priority 2020, dated 2025)
Entries after “also recorded” stand apart in the source; their conditions may differ.

What was measured:
Assay type in all cases: in vivo
[1] = test system: mice with OVA-induced allergic asthma; experiment: Circulating leukocyte cell counts (Experimental Groups II); details: i.n.; FB all tested doses (0.3, 1.0, 3.0 nmol/animal); B and F 3 nmol/animal
Method: Male Balb/c SPF mice (25*2 g, 6-week-old) were purchased from the animal house facilities at the São Paulo School of Medicine (Federal University of São Paulo, Brazil). They were group-housed in a temperature-controlled room at 22° C. with a 12/12-hour light/dark cycle and allowed free access to food and water. The study is in agreement with the Ethical Principles for Animal Research established by the Brazilian College for Animal Experimentation (COBEA). According to the internal laboratory rules, euthanasia is performed if severe distress related to the test agents developed during the experiment. […] The compounds were dissolved in DMSO (Sigma Chemical Co., St. Louis, MO) at concentrations at which the determined dose per animal results from the intraperitoneal administration of 100 μl of solution (1:10 DMSO) and intra-nasal (i.n.) administration of 10 μl/animal (5 μl/nostril) of the solutions. Mice were sensitized with two subcutaneous injections of 0.4 ml of OVA/Al(OH)3, with an interval of 7 days (Sham animals received the Al(OH)3 suspension in PBS with no OVA). Seven days after the second sensitization (i.e., 3rd week), the animals were nebulized twice a week with the 1% OVA solution (Sham and untreated OVA groups were nebulized with PBS) during 20 minutes for the next 2 weeks. Sixty minutes before the challenges (OVA nebulization) and daily during the next 4 weeks, mice were intra-nasally treated (10 μl/animal as 5 μl/nostril) with the respective compounds/vehicle. After Penh evaluation, the mice were anesthetized with inhaled isofluorane (5% v/v in O2) and blood samples were collected from the descending abdominal aorta. The mice were then euthanized by exsanguination (blood samples were collected from each animal for leukocyte cell counting), and bronchoalveolar lavage (BAL) was performed by exposing and cannulating the trachea with a polyethylene tube (1 mm outer diameter) connected to a syringe. The lungs were washed by flushing 300 μL of heparin-containing PBS solution (20 Ul/mL). The retrieved BAL lavage aliquots were obtained, and the same procedure was repeated four additional times. The samples were submitted to centrifugation (1000 g for 10 min) and the cell pellet was resuspended in 200 μL of PBS solution. Total cell counts were determined using a Neubauer chamber, and differential counting was carried out in cytospin (Fanem Mod 2400; São Paulo, Brazil) preparations stained with May-Grünwald dye. Leukocytes were classified based on normal morphological criteria.

[2] = test system: mice with OVA-induced allergic asthma; experiment: Lung hyperreactivity/Penh function, intra-nasal Bud vs Bud-21 P (Experimental Groups III); details: for Penh maximal response (Emax) / area under the Penh-metacholine concentration curve (AUC): 4 weeks
Method: Male Balb/c SPF mice (25*2 g, 6-week-old) were purchased from the animal house facilities at the São Paulo School of Medicine (Federal University of São Paulo, Brazil). They were group-housed in a temperature-controlled room at 22° C. with a 12/12-hour light/dark cycle and allowed free access to food and water. The study is in agreement with the Ethical Principles for Animal Research established by the Brazilian College for Animal Experimentation (COBEA). According to the internal laboratory rules, euthanasia is performed if severe distress related to the test agents developed during the experiment. In Protocol 3, the test compounds budesonide (Bud; MW: 430.53 g/mol) and budesonide 21-phosphate free acid (Bud-21 P; […] The compounds were dissolved in 10% sterile saline+90% DMSO (Sigma Chemical Co., St. Louis, MO) at the correspondent concentrations at which the above mentioned doses per animal result from the intra-nasal (i.n.) administration of 10 μl/animal (5 μl/nostril) of each of the solutions. Mice were sensitized with two subcutaneous injections of 0.4 ml of OVA/Al(OH)3, with an interval of 7 days (Sham animals received the Al(OH)3 suspension in PBS with no OVA). Seven days after the second sensitization (i.e., 3rd week), the animals were nebulized twice a week with the 1% OVA solution (Sham and untreated OVA groups were nebulized with PBS) during 20 minutes for the next 2 weeks. Sixty minutes before the challenges (OVA nebulization) and daily during the next 4 weeks, mice were intra-nasally treated (10 μl/animal as 5 μl/nostril) with the respective compounds/vehicle. Airway responsiveness in conscious, spontaneously breathing animals was measured at the end of the 4th week (i.e., after 2 weeks of OVA challenges+treatments), 24 h after the last OVA/PBS challenge via whole body plethysmography (Buxco Europe Ltd, Winchester, UK), as previously described. Experiments were carried out in a quiet room by an investigator who was unaware of the nature of treatments. Aerosolized saline (50 μl/mouse during 60 s) and then the muscarinic agonist metacholine (MCh) at increasing concentrations (3.12, 6.25, 12.5 and 25.0 mg/ml in PBS) was nebulized through an inlet of the main chamber for 3 min each to induce bronchoconstriction and readings were taken and averaged for 6 min following each nebulization. After 20 min, the baseline values usually returned at the end of this period. Enhanced pause (Penh) was measured as an indicator of bronchoconstriction and consequent increase of airway resistances: Penh=[(expiration time/relaxation time)−1][…](maximum expiration flow/maximum inspiration flow)

[3] = test system: mice with OVA-induced allergic asthma; experiment: Lung hyperreactivity/Penh function, whole body plethysmography, intra-nasal FB, F, B (Experimental Groups II); details: i.n. daily 2 weeks, all tested doses: FB 0.3, 1.0, 3.0 nmol/animal, vs untreated OVA group
OVA-sensitized mice = details: 1 mg/Kg i.p. before each OVA exposure; female Balb/c; vs OVA group; FIG. 10A
[4] = all tested doses (3, 10 and 30 nmol/animal/day) i.n.
[5] = highest dose 30 nmol/animal/day i.n.

SMILES | circulating macrophages [1] | Penh maximal response (Emax) [2, 4] | area under the Penh-metacholine concentration curve (AUC) [2, 4] | area under the Penh-metacholine concentration curve (AUC) ([3]; B 3.0 nmol/animal) | Penh maximal response Emax to inhaled metacholine ([3]; F and B 3.0 nmol/animal) | bronchial hyperreactivity (increased response of isolated bronchi to carbachol) (OVA-sensitized mice) | beneficial effect on bronchoconstriction response to methacholine (Penh function) ([2]; 3 and 10 nmol/animal/day i.n.) | Penh maximal response (Emax) [2, 5] | area under the Penh-metacholine concentration curve (AUC) [2, 5]
CCCC1OC2CC3C4CCC5=CC(=O)C=CC5(C)C4C(O)CC3(C)C2(C(=O)COP(=O)(O)O)O1 (stereo not drawn) [B, Budesonide 21-phosphate] | significantly reduced the number of macrophages; also recorded: mild decrease of circulating macrophages | significantly reduced | significantly reduced | showed no effect | showed no effect | did not significantly affect the increased response of carbachol |  |  | 
CCCC1OC2CC3C4CCC5=CC(=O)C=CC5(C)C4C(O)CC3(C)C2(C(=O)CO)O1 (stereo not drawn) [Bud, 11β,21-dihydroxy-16α,17α-(butylidenebis(oxy))pregna-1,4-diene-3.20-dione] |  |  |  |  |  |  | absent | significant reduction of this response just at the highest dose | significant reduction of this response just at the highest dose
